Test results as given in patent US12629410B2, “Multi-antigenic peptide mimics of gonococcal lipo-oligosaccharide (LOS) epitopes” (priority 2019, dated 2026).
Entries after “also recorded” stand apart in the source; their conditions may differ. Where two headings read alike, the source gives them in different places. Bridges are numbered along the chain shown (N, C = ends). Primed or numbered codes have the meaning given here. Where no end group is shown, it is not given here. [ ]: non-standard residue; d: D form. PEG2′ = two-unit polyethylene glycol spacer; PEG2″ = not defined here

How the values were obtained:
[1] = system: LOS purified from N. gonorrhoeae strain 15253; format: in vivo
mAb 2C7 = test: Inhibition ELISA: inhibition of mAb 2C7 binding to immobilized gonococcal LOS; details: for comparative ability to inhibit mAb 2C7 binding to LOS (antigenicity): ranking within the set of peptides tested
Source text: FIGS. 1A-1B show the structure and characterization of one of the peptide mimics described herein (also referred to as TMCP2). […] The 2C7 mimitope is indicated in shown as the sequence “H2C-CO-GPIPVLDENGLFAPGPC” (SEQ ID NO: 1) Cyclization is maintained through a thioether bond. The reverse peptide mimic core is represented the schematic of the peptide mimic as “Ac-β-Ala-Glu[Glu-OH]2.” The reverse peptide mimic core links to each cyclic peptide through a lysine (K) residue.
In order to compare antigenicity of peptide mimic Core Peptide 2 (monomeric cyclic CP2) and composite TMCP2 compounds with LOS that expresses the 2C7 epitope, inhibition ELISA was performed using mAb 2C7 reacted with the individual compounds to assess inhibition of binding (residual binding) of mAb to LOS by each compound. Microtiter wells were coated with LOS (80 μg/ml in PBS) purified from strain FA1090. Wells were washed and blocked with PBS-0.05% Tween 20. mAb 2C7 (0.04 μg/ml) either alone or containing monomeric cyclic peptide CP2 (1.07 to 1070 μM) or composite TMCP2 (concentrations ranging from […]) was dispended into LOS coated wells. Residual binding of 2C7 mAb was measured with anti-mouse IgG conjugated to alkaline phosphatase. Bound IgG was quantitated using a mouse IgG standard curve and percent inhibition determined compared to reaction mixtures that […].
Attempts to measure mAb 2C7 (7) binding directly to immobilized peptide mimic Core Peptide 2 (abbreviated CP2 in FIG. 1A) and composite TMCP2 by ELISA were not successful. The possibility of poor capture of the peptides by the microtiter wells was considered and therefore used an ELISA to measure inhibition of binding (residual binding) of mAb 2C7 to immobilized gonococcal LOS that had been reacted with increasing concentrations of the peptides (FIG. 1B).

[2] = earlier peptide constructs, FIG. 18 and FIG. 19

## (CGPIPVLDENGLFAPGPC)4(Lys)2Lys-β-Ala-COOH [Tetra MAP 1.1]
[1]; in vivo
  immunogenicity in BALB/c mice (IgG against 2C7+ LOS by ELISA): Neither compound was superior; also recorded: elicited similar anti-LOS Ab levels as Tetra

## (CH2-CO-GPIPVLDENGLFAPGPC)-K-OH ({CH2CO}-GPIPVLDENGLFAPGPCK-OH; thioether N-17; SMILES CC[C@H](C)[C@@H]1NC(=O)[C@@H]2CCCN2C(=O)CNC(=O)CSC[C@@H](C(=O)N[C@@H](CCCCN)C(=O)O)NC(=O)[C@@H]2CCCN2C(=O)CNC(=O)[C@@H]2CCCN2C(=O)[C@H](C)NC(=O)[C@H](Cc2ccccc2)NC(=O)[C@H](CC(C)C)NC(=O)CNC(=O)[C@H](CC(N)=O)NC(=O)[C@H](CCC(=O)O)NC(=O)[C@H](CC(=O)O)NC(=O)[C@H](CC(C)C)NC(=O)[C@H](C(C)C)NC(=O)[C@@H]2CCCN2C1=O) [CP2]
mAb 2C7; mAb 2C7 0.04 μg/ml, LOS-coated wells, read-out: concentration giving 50% inhibition of mAb 2C7 binding to immobilized 15253 LOS
  IC50: 107 µM

## (KIPVLDENGLFAP-PEG2-KK)4-MAP4 [Tetra MAP 3.1]
[1]; in vivo
  immunogenicity in BALB/c mice (IgG against 2C7+ LOS by ELISA): poorly immunogenic

## (KIPVLDENGLFAP-PEG2-KKC)4-Maleimide4-MAP4 (KIPVLDENGLFAP[PEG2″]KKC; also: four copies on a maleimide MAP4 core) [TetraMAP 3.2]
[1]; [2]
  immunogenicity in BALB/c mice (IgG against 2C7+ LOS by ELISA): poorly immunogenic

## KIPVLDENGLFAP (SEQ ID NO: 3)-PEG2-KK (KIPVLDENGLFAP[PEG2′]KK) [Mod3]
mAb 2C7; listed as Mod 3
  comparative ability to inhibit mAb 2C7 binding to LOS (antigenicity): most antigenic

## KIPVLDENGLFAP-D Lys-D Lys4-K2-K-MAP4 (not fully specified (C-terminus); also: four copies on a branched Lys (K2-K) MAP4 core) [TetraMAP 3.3]
[1]; [2]
  immunogenicity in BALB/c mice (IgG against 2C7+ LOS by ELISA): poorly immunogenic

## KIPVLDENGLFAPAAAGGKIPVLDENGLFAP [Mod3 linear dimer #2]
[1]; earlier peptide constructs, FIG. 18 and FIG. 19, listed as 16
  immunogenicity in BALB/c mice (IgG against 2C7+ LOS by ELISA): non-immunogenic
[1]; earlier peptide constructs, FIG. 18 and FIG. 19, listed as Mod3 linear dimer with AAAGG (SEQ ID NO: 5) linker
  immunogenicity in BALB/c mice (IgG against 2C7+ LOS by ELISA): neither were immunogenic
mAb 2C7; listed as Mod3 linear dimer with AAAGG (SEQ ID NO: 5) linker
  comparative ability to inhibit mAb 2C7 binding to LOS (antigenicity): better than the molecule with the AG linker

## KIPVLDENGLFAPGPC-D Lys-D Lys4-K2-K-MAP4 (not fully specified (C-terminus); also: four copies on a branched Lys (K2-K) MAP4 core) [TetraMAP 3.4]
[1]; [2]
  immunogenicity in BALB/c mice (IgG against 2C7+ LOS by ELISA): poorly immunogenic

## KIPVLDENGLFAPGSKIPVLDENGLFAP [Mod3 linear dimer #1]
[1]; earlier peptide constructs, FIG. 18 and FIG. 19, listed as 15
  immunogenicity in BALB/c mice (IgG against 2C7+ LOS by ELISA): non-immunogenic
[1]; earlier peptide constructs, FIG. 18 and FIG. 19, listed as Mod3 linear dimer with GS linker
  immunogenicity in BALB/c mice (IgG against 2C7+ LOS by ELISA): neither were immunogenic

## SGPIPVLDENGLFAPGPC)4(Lys)2Lys-β-Ala-COOH [Tetra MAP 1.2]
[1]; in vivo
  immunogenicity in BALB/c mice (IgG against 2C7+ LOS by ELISA): Neither compound was superior

## [Ac-(CGPIPVLDENGLFAPGPC)-K-OH]4 (Ac-CGPIPVLDENGLFAPGPCK-OH; disulfide 1-18; also: tetrameric reverse MAP core) [TMCP3, disulfide-cyclized peptides on reverse MAP core]
[1]; tetrapeptides 50 μg/dose plus Sigma MPL adjuvant, BALB/c, FIG. 10
  anti-LOS titers in immunization experiments: higher anti-LOS titers than TMCP4
mAb 2C7
  comparative ability to inhibit mAb 2C7 binding to LOS (antigenicity): bound best
